Data from ChEMBL document CHEMBL1201861, “Genomics of Drug Sensitity in Cancer screening data, Wellcome Trust Sanger Institute”.
Where a name gives a salt, the structure may show the parent alone.

Tests used:
NCI-H810 = assay: cells; type: functional, cell-based, Homo sapiens;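 note: IC50 reflects inhibition of cancer cell line growth, read out with a cell viability assay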
Description: SANGER: Inhibition of human NCI-H810 cell growth in a cell viability assay.

Capan-2 = assay: cells; type: functional, cell-based, Homo sapiens;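 note: Capan-2 cell growth inhibition, read out with a viability assay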
Description: SANGER: Inhibition of human Capan-2 cell growth in a cell viability assay.

C32 = assay: cells; type: functional, cell-based, Homo sapiens;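 note: cell viability assay, with IC50 reflecting inhibition of C32 cell growth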
Description: SANGER: Inhibition of human C32 cell growth in a cell viability assay.

COLO-678 = assay: cells; type: functional, cell-based, Homo sapiens
Description: SANGER: Inhibition of human COLO-678 cell growth in a cell viability assay.

SNU-423 = assay: cells; type: functional, cell-based, Homo sapiens
Description: SANGER: Inhibition of human SNU-423 cell growth in a cell viability assay.

NCI-H1623 = assay: cells; type: functional, cell-based, Homo sapiens;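 note: cell viability assay used as the read-out for growth inhibition of NCI-H1623 cells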
Description: SANGER: Inhibition of human NCI-H1623 cell growth in a cell viability assay.

SW626 = assay: cells; type: functional, cell-based, Homo sapiens;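 note: growth inhibition of SW626 cells, measured with a cell viability assay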
Description: SANGER: Inhibition of human SW626 cell growth in a cell viability assay.

RPMI-6666 = assay: cells; type: functional, cell-based, Homo sapiens
Description: SANGER: Inhibition of human RPMI-6666 cell growth in a cell viability assay.

HuP-T3 = assay: cells; type: functional, cell-based, Homo sapiens;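 note: HuP-T3 cell growth inhibition, read out with a cell viability assay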
Description: SANGER: Inhibition of human HuP-T3 cell growth in a cell viability assay.

T-24 = assay: cells; type: functional, cell-based, Homo sapiens;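 note: growth inhibition of T-24 cells, read out with a cell viability assay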
Description: SANGER: Inhibition of human T-24 cell growth in a cell viability assay.

BC-3 = assay: cells; type: functional, cell-based, Homo sapiens;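 note: cell viability assay measuring growth inhibition of human BC-3 cells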
Description: SANGER: Inhibition of human BC-3 cell growth in a cell viability assay.

A204 = assay: cells; type: functional, cell-based, Homo sapiens;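 note: growth inhibition of human A204 cells, read out with a cell viability assay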
Description: SANGER: Inhibition of human A204 cell growth in a cell viability assay.

KU-19-19 = assay: cells; type: functional, cell-based, Homo sapiens
Description: SANGER: Inhibition of human KU-19-19 cell growth in a cell viability assay.

CA46 = assay: cells; type: functional, cell-based, Homo sapiens;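 note: growth inhibition of human CA46 cells, read out by a cell viability assay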
Description: SANGER: Inhibition of human CA46 cell growth in a cell viability assay.

AU565 = assay: cells; type: functional, cell-based, Homo sapiens;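 note: cell viability assay measuring growth inhibition of human AU565 cells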
Description: SANGER: Inhibition of human AU565 cell growth in a cell viability assay.

VMRC-RCZ = assay: cells; type: functional, cell-based, Homo sapiens
Description: SANGER: Inhibition of human VMRC-RCZ cell growth in a cell viability assay.

P31-FUJ = assay: cells; type: functional, cell-based, Homo sapiens;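 note: growth inhibition of P31-FUJ cells, read out with a viability assay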
Description: SANGER: Inhibition of human P31-FUJ cell growth in a cell viability assay.

MDA-MB-157 = assay: cells; type: functional, cell-based, Homo sapiens
Description: SANGER: Inhibition of human MDA-MB-157 cell growth in a cell viability assay.

SiHa = assay: cells; type: functional, cell-based, Homo sapiens;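 note: Viability-based readout of growth inhibition in SiHa cells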
Description: SANGER: Inhibition of human SiHa cell growth in a cell viability assay.

EGI-1 = assay: cells; type: functional, cell-based, Homo sapiens;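 note: cell viability readout used to gauge growth inhibition of EGI-1 cells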
Description: SANGER: Inhibition of human EGI-1 cell growth in a cell viability assay.

BL-70 = assay: SANGER: Inhibition of human BL-70 cell growth in a cell viability assay.; type: functional, cell-based
JIYOYE = assay: cells; type: functional, cell-based, Homo sapiens
Description: SANGER: Inhibition of human JiyoyeP-2003 cell growth in a cell viability assay.

ASPC1 = assay: cells; type: functional, cell-based, Homo sapiens;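 note: growth inhibition of AsPC-1 cells, read out with a cell viability assay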
Description: SANGER: Inhibition of human AsPC-1 cell growth in a cell viability assay.

LOUCY = assay: cells; type: functional, cell-based, Homo sapiens;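 note: growth inhibition of human LOUCY cells, read out with a cell viability assay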
Description: SANGER: Inhibition of human LOUCY cell growth in a cell viability assay.

HCC1395 = assay: cells; type: functional, cell-based, Homo sapiens;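 note: growth inhibition of HCC1395 cells, read out by a cell viability assay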
Description: SANGER: Inhibition of human HCC1395 cell growth in a cell viability assay.

CAL-54 = assay: cells; type: functional, cell-based, Homo sapiens;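 note: growth inhibition of CAL-54 cells, read out by a viability measurement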
Description: SANGER: Inhibition of human CAL-54 cell growth in a cell viability assay.

NCI-H2227 = assay: cells; type: functional, cell-based, Homo sapiens;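 note: growth inhibition of the human cell line, read out with a cell viability assay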
Description: SANGER: Inhibition of human NCI-H2227 cell growth in a cell viability assay.

OAW-28 = assay: cells; type: functional, cell-based, Homo sapiens;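 note: growth inhibition of OAW-28 cells, read out with a cell viability assay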
Description: SANGER: Inhibition of human OAW-28 cell growth in a cell viability assay.

K052 = assay: cells; type: functional, cell-based, Homo sapiens;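 note: Read-out from a cell viability assay, IC50 reflecting suppression of K052 cell growth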
Description: SANGER: Inhibition of human K052 cell growth in a cell viability assay.

NCI-H2347 = assay: cells; type: functional, cell-based, Homo sapiens;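 note: growth inhibition of the cell line, read out with a cell viability assay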
Description: SANGER: Inhibition of human NCI-H2347 cell growth in a cell viability assay.

PA-1 = assay: cells; type: functional, cell-based, Homo sapiens;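 note: IC50 for suppression of PA-1 cell proliferation, determined with a cell viability read-out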
Description: SANGER: Inhibition of human PA-1 cell growth in a cell viability assay.

D-542MG = assay: cells; type: functional, cell-based, Homo sapiens
Description: SANGER: Inhibition of human D-542MG cell growth in a cell viability assay.

OE19 = assay: cells; type: functional, cell-based, Homo sapiens;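 note: growth inhibition of OE19 cells, measured through a cell viability read-out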
Description: SANGER: Inhibition of human OE19 cell growth in a cell viability assay.

WM-115 = assay: cells; type: functional, cell-based, Homo sapiens
Description: SANGER: Inhibition of human WM-115 cell growth in a cell viability assay.

KYSE-510 = assay: cells; type: functional, cell-based, Homo sapiens;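 note: cell viability readout used to measure how strongly growth of the cell line is suppressed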
Description: SANGER: Inhibition of human KYSE-510 cell growth in a cell viability assay.

A-375 = assay: cells; type: functional, cell-based, Homo sapiens;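 note: growth inhibition of A375 cells, read out with a cell viability assay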
Description: SANGER: Inhibition of human A375 cell growth in a cell viability assay.

KYSE-270 = assay: cells; type: functional, cell-based, Homo sapiens;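 note: cell growth inhibition measured with a viability assay in the human KYSE-270 line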
Description: SANGER: Inhibition of human KYSE-270 cell growth in a cell viability assay.

ME-180 = assay: cells; type: functional, cell-based, Homo sapiens;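 note: cell viability assay measuring growth inhibition of ME-180 cells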
Description: SANGER: Inhibition of human ME-180 cell growth in a cell viability assay.

FTC-133 = assay: cells; type: functional, cell-based, Homo sapiens
HCC1806 = assay: cells; type: functional, cell-based, Homo sapiens;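 note: growth inhibition of the cancer cell line, determined with a cell viability assay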
Description: SANGER: Inhibition of human HCC1806 cell growth in a cell viability assay.

M059J = assay: cells; type: functional, cell-based, Homo sapiens;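 note: growth inhibition of M059J cells, read out with a cell viability assay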
Description: SANGER: Inhibition of human M059J cell growth in a cell viability assay.

SAS = assay: cells; type: functional, cell-based, Homo sapiens;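 note: growth inhibition of SAS cells, read out with a cell viability assay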
Description: SANGER: Inhibition of human SAS cell growth in a cell viability assay.

HN = assay: cells; type: functional, cell-based, Homo sapiens
Description: SANGER: Inhibition of human HN cell growth in a cell viability assay.

DBTRG-05MG = assay: cells; type: functional, cell-based, Homo sapiens;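 note: cell viability assay measuring growth inhibition of human DBTRG-05MG cells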
Description: SANGER: Inhibition of human DBTRG-05MG cell growth in a cell viability assay.

MEL-JUSO = assay: cells; type: functional, cell-based, Homo sapiens;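 note: growth inhibition of human MEL-JUSO cells, read out with a cell viability assay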
Description: SANGER: Inhibition of human MEL-JUSO cell growth in a cell viability assay.

SW948 = assay: cells; type: functional, cell-based, Homo sapiens;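 note: growth inhibition of SW948 cells, read out with a cell viability assay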
Description: SANGER: Inhibition of human SW948 cell growth in a cell viability assay.

UACC-62 = assay: cells; type: functional, cell-based, Homo sapiens;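 note: growth inhibition of human UACC-62 cells, read out by a cell viability assay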
Description: SANGER: Inhibition of human UACC-62 cell growth in a cell viability assay.

For `COC1=CC(c2cc3ccccc3[nH]2)=N/C1=C\c1[nH]c(C)cc1C` [OBATOCLAX MESYLATE], the IC50 (NCI-H810; Homo sapiens, NCI-H810) was 0.117 µM, the IC50 (Capan-2; Homo sapiens, Capan-2) was 0.666 µM and the IC50 (C32; Homo sapiens, C32) was 0.452 µM. The IC50 (COLO-678; Homo sapiens, COLO-678) was 3.38 µM, the IC50 (SNU-423; Homo sapiens, SNU-423) was 0.129 µM and the IC50 (NCI-H1623; Homo sapiens, NCI-H1623) was 3.09 µM. For the same compound, the IC50 (SW626; Homo sapiens, SW626) was 0.072 µM, the IC50 (RPMI-6666; Homo sapiens, RPMI-6666) was 0.0897 µM and the IC50 (HuP-T3; Homo sapiens, HuP-T3) was 0.528 µM. For the same compound, the IC50 (T-24; Homo sapiens, T-24) was 9.94 µM, the IC50 (BC-3; Homo sapiens, BC-3) was 2.37 µM and the IC50 (A204; Homo sapiens, A204) was 1.6 µM. For the same compound, the IC50 (KU-19-19; Homo sapiens, KU-19-19) was 0.646 µM, the IC50 (CA46; Homo sapiens, CA46) was 0.0654 µM and the IC50 (AU565; Homo sapiens, AU565) was 0.425 µM. For the same compound, the IC50 (VMRC-RCZ; Homo sapiens, VMRC-RCZ) was 0.403 µM, the IC50 (P31-FUJ; Homo sapiens, P31-FUJ) was > 16 µM and the IC50 (MDA-MB-157; Homo sapiens, MDA-MB-157) was 0.823 µM. The IC50 (SiHa; Homo sapiens, SiHa) was 3.12 µM, the IC50 (EGI-1; Homo sapiens, EGI-1) was 1.58 µM and the IC50 (BL-70; Homo sapiens, BL-70) was 0.063 µM. For the same compound, the IC50 (JIYOYE; Homo sapiens, JIYOYE) was 0.203 µM, the IC50 (ASPC1; Homo sapiens, ASPC1) was 7.49 µM and the IC50 (LOUCY; Homo sapiens, LOUCY) was < 0.0625 µM. The IC50 (HCC1395; Homo sapiens, HCC1395) was 1.93 µM, the IC50 (CAL-54; Homo sapiens, CAL-54) was 1.31 µM and the IC50 (NCI-H2227; Homo sapiens, NCI-H2227) was > 16 µM. The IC50 (OAW-28; Homo sapiens, OAW-28) was 0.202 µM, the IC50 (K052; Homo sapiens, K052) was 0.94 µM and the IC50 (NCI-H2347; Homo sapiens, NCI-H2347) was 0.888 µM. For the same compound, the IC50 (PA-1; Homo sapiens, PA-1) was 0.0877 µM, the IC50 (D-542MG; Homo sapiens, D-542MG) was 0.17 µM and the IC50 (OE19; Homo sapiens, OE19) was 1.66 µM. The IC50 (WM-115; Homo sapiens, WM-115) was 4.51 µM, the IC50 (KYSE-510; Homo sapiens, KYSE-510) was < 0.0625 µM and the IC50 (A-375; Homo sapiens, A-375) was < 0.0625 µM. For the same compound, the IC50 (KYSE-270; Homo sapiens, KYSE-270) was 0.0298 µM, the IC50 (ME-180; Homo sapiens, ME-180) was 1.44 µM and the IC50 (FTC-133; Homo sapiens, FTC-133) was 3.65 µM. It also gave an IC50 (HCC1806; Homo sapiens, HCC1806) of 0.124 µM, an IC50 (M059J; Homo sapiens, M059J) of 1.36 µM and an IC50 (SAS; Homo sapiens, SAS) of 0.273 µM. For the same compound, the IC50 (HN; Homo sapiens, HN) was < 0.0625 µM, the IC50 (DBTRG-05MG; Homo sapiens, DBTRG-05MG) was 2.06 µM and the IC50 (MEL-JUSO; Homo sapiens, MEL-JUSO) was 0.0247 µM. For the same compound, the IC50 (SW948; Homo sapiens, SW948) was 7.58 µM and the IC50 (UACC-62; Homo sapiens, UACC-62) was 0.302 µM.

For BLEOMYCIN, the IC50 (NCI-H810; nci-h810) was 55.1 µM, the IC50 (Capan-2; capan-2) was 24.2 µM and the IC50 (C32; c32) was 471 µM. For the same compound, the IC50 (COLO-678; colo-678) was 36.2 µM, the IC50 (SNU-423; snu-423) was 0.867 µM and the IC50 (NCI-H1623; nci-h1623) was 39 µM. It also gave an IC50 (SW626; sw626) of 1.41 µM, an IC50 (RPMI-6666; rpmi-6666) of 0.445 µM and an IC50 (HuP-T3; hup-t3) of 4.79 µM. The IC50 (T-24; t-24) was 0.72 µM, the IC50 (BC-3; bc-3) was 0.521 µM and the IC50 (A204; a204) was 0.2 µM. The IC50 (KU-19-19; ku-19-19) was 525 µM, the IC50 (CA46; ca46) was 84.8 µM and the IC50 (AU565; au565) was 2.05 µM. For the same compound, the IC50 (VMRC-RCZ; vmrc-rcz) was 2.69 µM, the IC50 (P31-FUJ; p31-fuj) was 460 µM and the IC50 (MDA-MB-157; mda-mb-157) was 307 µM. For the same compound, the IC50 (SiHa; siha) was 5170 µM, the IC50 (EGI-1; egi-1) was 0.772 µM and the IC50 (BL-70; bl-70) was 1650 µM. It also gave an IC50 (JIYOYE; jiyoye) of 3.38 µM, an IC50 (ASPC1; aspc1) of 82.5 µM and an IC50 (LOUCY; loucy) of 0.00993 µM. It also gave an IC50 (HCC1395; hcc1395) of 0.501 µM, an IC50 (CAL-54; cal-54) of 0.191 µM and an IC50 (NCI-H2227; nci-h2227) of 721 µM. For the same compound, the IC50 (OAW-28; oaw-28) was 9.21 µM, the IC50 (K052; k052) was 482 µM and the IC50 (NCI-H2347; nci-h2347) was 5.12 µM. For the same compound, the IC50 (PA-1; pa-1) was 2.02 µM, the IC50 (D-542MG; d-542mg) was 60.3 µM and the IC50 (OE19; oe19) was 2.14 µM. The IC50 (WM-115; wm-115) was 7.09 µM, the IC50 (KYSE-510; kyse-510) was 1.86 µM and the IC50 (A-375; a-375) was 0.0711 µM. The IC50 (KYSE-270; kyse-270) was 0.717 µM, the IC50 (ME-180; me-180) was 40.9 µM and the IC50 (FTC-133; ftc-133) was 1.29 µM. The IC50 (HCC1806; hcc1806) was 0.00854 µM, the IC50 (M059J; m059j) was 3.77 µM and the IC50 (SAS; sas) was 3.26 µM. The IC50 (HN; hn) was 29.1 µM, the IC50 (DBTRG-05MG; dbtrg-05mg) was 5.67 µM and the IC50 (MEL-JUSO; mel-juso) was 0.109 µM. The IC50 (SW948; sw948) was 354 µM and the IC50 (UACC-62; uacc-62) was 188 µM.

For `Cc1cc([N+](=O)[O-])ccc1NS(=O)(=O)c1cc(Cl)ccc1Cl`, the IC50 (NCI-H810; Homo sapiens, NCI-H810) was 1.25 µM, the IC50 (Capan-2; Homo sapiens, Capan-2) was 8.17 µM and the IC50 (C32; Homo sapiens, C32) was < 0.125 µM. For the same compound, the IC50 (COLO-678; Homo sapiens, COLO-678) was 10.9 µM, the IC50 (SNU-423; Homo sapiens, SNU-423) was 7.17 µM and the IC50 (NCI-H1623; Homo sapiens, NCI-H1623) was > 32 µM. For the same compound, the IC50 (SW626; Homo sapiens, SW626) was 3.12 µM, the IC50 (RPMI-6666; Homo sapiens, RPMI-6666) was 20.2 µM and the IC50 (HuP-T3; Homo sapiens, HuP-T3) was 11.2 µM. For the same compound, the IC50 (T-24; Homo sapiens, T-24) was > 32 µM, the IC50 (BC-3; Homo sapiens, BC-3) was 8.38 µM and the IC50 (A204; Homo sapiens, A204) was 6.09 µM. For the same compound, the IC50 (KU-19-19; Homo sapiens, KU-19-19) was > 32 µM, the IC50 (CA46; Homo sapiens, CA46) was 7.16 µM and the IC50 (AU565; Homo sapiens, AU565) was 2.34 µM. It also gave an IC50 (VMRC-RCZ; Homo sapiens, VMRC-RCZ) of 6.97 µM, an IC50 (P31-FUJ; Homo sapiens, P31-FUJ) of 7.77 µM and an IC50 (MDA-MB-157; Homo sapiens, MDA-MB-157) of 8.59 µM. The IC50 (SiHa; Homo sapiens, SiHa) was 19.7 µM, the IC50 (EGI-1; Homo sapiens, EGI-1) was 24.8 µM and the IC50 (BL-70; Homo sapiens, BL-70) was 5.1 µM. The IC50 (JIYOYE; Homo sapiens, JIYOYE) was 6.6 µM, the IC50 (ASPC1; Homo sapiens, ASPC1) was 22.3 µM and the IC50 (LOUCY; Homo sapiens, LOUCY) was 20 µM. For the same compound, the IC50 (HCC1395; Homo sapiens, HCC1395) was 0.381 µM, the IC50 (CAL-54; Homo sapiens, CAL-54) was 5.44 µM and the IC50 (NCI-H2227; Homo sapiens, NCI-H2227) was > 32 µM. For the same compound, the IC50 (OAW-28; Homo sapiens, OAW-28) was 24.7 µM, the IC50 (K052; Homo sapiens, K052) was 14.2 µM and the IC50 (NCI-H2347; Homo sapiens, NCI-H2347) was 5.86 µM. It also gave an IC50 (PA-1; Homo sapiens, PA-1) of 2.9 µM, an IC50 (D-542MG; Homo sapiens, D-542MG) of 0.277 µM and an IC50 (OE19; Homo sapiens, OE19) of 3.78 µM. For the same compound, the IC50 (WM-115; Homo sapiens, WM-115) was > 32 µM, the IC50 (KYSE-510; Homo sapiens, KYSE-510) was 4.84 µM and the IC50 (A-375; Homo sapiens, A-375) was 3.58 µM. The IC50 (KYSE-270; Homo sapiens, KYSE-270) was 3.03 µM, the IC50 (ME-180; Homo sapiens, ME-180) was 2.82 µM and the IC50 (FTC-133; Homo sapiens, FTC-133) was 6.74 µM. The IC50 (HCC1806; Homo sapiens, HCC1806) was 20.5 µM, the IC50 (M059J; Homo sapiens, M059J) was 5.94 µM and the IC50 (SAS; Homo sapiens, SAS) was > 32 µM. For the same compound, the IC50 (HN; Homo sapiens, HN) was > 32 µM, the IC50 (DBTRG-05MG; Homo sapiens, DBTRG-05MG) was 9.11 µM and the IC50 (MEL-JUSO; Homo sapiens, MEL-JUSO) was 5.17 µM. For the same compound, the IC50 (SW948; Homo sapiens, SW948) was 12.3 µM and the IC50 (UACC-62; Homo sapiens, UACC-62) was 0.256 µM.
